Measured values published in patent EP0674651B1, “SUBSTITUTED 6-AZAANDROSTENONES” (priority 1992, dated 1994).

How the values were obtained:
[1] = molecular target: T1, human type 1 5α-reductase (Homo sapiens, UniProt P18405); assay: 5α-reductase in vitro inhibitory activity, human type 1
T1 sequence (P18405 1-259): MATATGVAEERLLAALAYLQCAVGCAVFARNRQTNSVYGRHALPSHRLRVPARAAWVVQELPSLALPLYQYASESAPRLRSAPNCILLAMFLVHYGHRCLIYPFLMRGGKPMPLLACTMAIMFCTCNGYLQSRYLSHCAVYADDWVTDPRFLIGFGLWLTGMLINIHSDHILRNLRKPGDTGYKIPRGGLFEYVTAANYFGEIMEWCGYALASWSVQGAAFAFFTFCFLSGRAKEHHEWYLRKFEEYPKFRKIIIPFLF

[2] = molecular target: T2, human type 2 5α-reductase (Homo sapiens, UniProt P31213); assay: 5α-reductase in vitro inhibitory activity, human type 2
T2 sequence (P31213 1-254): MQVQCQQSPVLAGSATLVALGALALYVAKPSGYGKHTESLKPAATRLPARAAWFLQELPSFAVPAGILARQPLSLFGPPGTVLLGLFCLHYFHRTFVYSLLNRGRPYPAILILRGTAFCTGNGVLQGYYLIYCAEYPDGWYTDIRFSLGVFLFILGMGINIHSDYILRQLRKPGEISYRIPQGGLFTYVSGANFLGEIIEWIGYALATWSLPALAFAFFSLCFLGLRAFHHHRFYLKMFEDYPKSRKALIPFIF
Protocol: Microsomes were prepared by homogenization of the tissue or cells, followed by differential centrifugation of the homogenate. […] Corresponding incubations were carried out with no test compound as a control study.
The percentage of conversion of testosterone to DHT in the presence of test compounds compared to the corresponding conversion in the control study was estimated using high pressure liquid chromatography (HPLC) with radiochemical detection.

Row | IC50 [1] [nM] | IC50 [2] [nM] | Compound
1 | 10 to 100 | < 10 | C[C@]12CC[C@H]3[C@@H](CNC4=CC(=O)CC[C@@]43C)[C@@H]1CC[C@@H]2C(=O)C1CC2CCC1C2 (stereo partly drawn) [Compound 68, 17β-(1-Oxo-1-(2-norbornyl)methyl)-6-azaandrost-4-en-3-one]
2 | < 10 | < 10 | CC1=C2NC[C@H]3[C@@H]4CC[C@H](C(=O)NC5(c6ccc(Cl)cc6)CCCC5)[C@@]4(C)CC[C@@H]3[C@@]2(C)CCC1=O [Compound 125, 17β-N-1-(4-Chlorophenyl)cyclopentyl-carbamovl-6-azaandrost-4-methyl-4-en-3-one]
3 | < 10 | < 10 | CC(C)(C)c1ccc(C2(NC(=O)[C@H]3CC[C@H]4[C@@H]5CNC6=CC(=O)CC[C@]6(C)[C@H]5CC[C@]34C)C3CCCC2CCC3)cc1 (stereo partly drawn) [Compound 144, 17β-N-9-(4-t-Butylphenyl)bicyclo[3.3.1]nonyl-carbamoyl-6-azaandrost-4-en-3-one]
4 | 10 to 100 | < 10 | C[C@]12CC[C@H]3[C@@H](CNC4=CC(=O)CC[C@@]43C)[C@@H]1CC[C@@H]2C(=O)Nc1cc(C(F)(F)F)ccc1Oc1ccc(Cl)cc1 [Compound 81, 17β-N-(2-(O-4-Chlorophenyl)-5-trifluoromethyl)phenyl-carbamoyl-6-azaandrost-4-en-3-one]
5 | 10 to 100 | < 10 | CC(C)C(NC(=O)[C@H]1CC[C@H]2[C@@H]3CNC4=CC(=O)CC[C@]4(C)[C@H]3CC[C@]12C)c1ccc(Cl)cc1 (stereo partly drawn) [Compound 65, 17β-N-(1-(4-Chlorophenyl)-2-methyl)propyl-carbamoyl-6-azaandrost-4-en-3-one]
6 | 10 to 100 | < 10 | CC(C)(C)c1ccc(NC(=O)[C@H]2CC[C@H]3[C@@H]4CNC5=CC(=O)CC[C@]5(C)[C@H]4CC[C@]23C)cc1[N+](=O)[O-] [Compound 92, 17β-N-(3-Nitro-4-t-butyl)phenyl-carbamoyl-6-azaandrost-4-en-3-one]
7 | > 100 | < 10 | C[C@]12CC[C@H]3[C@@H](CNC4=CC(=O)CC[C@@]43C)[C@@H]1CC[C@@H]2C(=O)Nc1cccc(C(=O)O)c1 [Compound 137, 17β-N-(3-Carboxy)phenyl-carbamoyl-6-azaandrost-4-en-3-one]
8 | > 100 | 10 to 100 | CC(C)c1cc(C(C)C)c(C(=O)[C@H]2CC[C@H]3[C@@H]4CNC5=CC(=O)CC[C@]5(C)[C@H]4CC[C@]23C)c(C(C)C)c1 [Compound 60, 17β-(1-Oxo-1-((2,4,6-tri-i-propyl)phenyl)methyl)-6-azaandrost-4-en-3-one]
9 | 10 to 100 | < 10 | CC1(C)Cc2ccccc2C1NC(=O)[C@H]1CC[C@H]2[C@@H]3CNC4=CC(=O)CC[C@]4(C)[C@H]3CC[C@]12C (stereo partly drawn) [Compound 110, 17β-N-1-(2,2-Dimethyl)indanyl-carbamoyl-6-azaandrost-4-en-3-one]
10 | 10 to 100 | < 10 | CCc1c(Cl)cc(Cl)c(CC)c1NC(=O)[C@H]1CC[C@H]2[C@@H]3CNC4=CC(=O)CC[C@]4(C)[C@H]3CC[C@]12C [Compound 54, 17β-N-(2,6-Diethyl-3,5-dichloro)phenyl-carbamoyl-6-azaandrost-4-en-3-one]
11 | < 10 | < 10 | COc1ccc(C2(NC(=O)[C@H]3CC[C@H]4[C@@H]5CNC6=CC(=O)CC[C@]6(C)[C@H]5CC[C@]34C)CCCC2)cc1 [Compound 115, 17β-N-1-(4-Methoxyphenyl)cyclopentyl-carbamoyl-6-azaandrost-4-en-3-one]
12 | < 10 | < 10 | C[C@]12CC[C@H]3[C@@H](CNC4=CC(=O)CC[C@@]43C)[C@@H]1CC[C@@H]2C(=O)NC1(c2ccc(F)cc2)CCCCC1 [Compound 109, 17β-N-1-(4-Fluorophenyl)cyclohexyl-carbamoyl-6-azaandrost-4-en-3-one]
13 | 10 to 100 | < 10 | C[C@]12CC[C@H]3[C@@H](CNC4=CC(=O)CC[C@@]43C)[C@@H]1CC[C@@H]2C(=O)NCCSc1ccccc1 [Compound 23, 17β-N-2-(Phenylthio)ethyl-carbamoyl-6-azaandrost-4-en-3-one]
14 | > 100 | < 10 | CC(C)(C)c1ccc(-c2ccc(C(F)(F)F)cc2NC(=O)[C@H]2CC[C@H]3[C@@H]4CNC5=CC(=O)CC[C@]5(C)[C@H]4CC[C@]23C)cc1 [Compound 135]
15 | 10 to 100 | < 10 | C[C@]12CC[C@H]3[C@@H](CNC4=CC(=O)CC[C@@]43C)[C@@H]1CC[C@@H]2C(=O)Nc1cc(C(F)(F)F)ccc1Br [Compound 61, 17β-N-(2-Bromo-5-trifluoromethyl)phenyl-carbamoyl-6-azaandrost-4-en-3-one]
16 | > 100 | 10 to 100 | CC(C)NC(=O)N(C(=O)[C@H]1CC[C@H]2[C@@H]3CNC4=CC(=O)CC[C@]4(C)[C@H]3CC[C@]12C)C(C)C [Compound 95, 17β-(N-i-Propyl-N-(N-i-propylcarbamoyl))-carbamoyl-6-azaandrost-4-en-3-one]
17 | < 10 | < 10 | CC1=C2NC[C@H]3[C@@H]4CC[C@H](C(=O)Nc5cc(C(F)(F)F)ccc5C(C)(C)C)[C@@]4(C)CC[C@@H]3[C@@]2(C)CCC1=O [Compound 117, 17β-N-(2-t-Butyl-5-trifluoromethyl)phenyl-carbamoyl-6-azaandrost-4-methyl-4-en-3-one]
18 | 10 to 100 | < 10 | C[C@]12CC[C@H]3[C@@H](CNC4=CC(=O)CC[C@@]43C)[C@@H]1CC[C@@H]2C(=O)Nc1cc(C(F)(F)F)ccc1-c1ccccc1 [Compound 112, 17β-N-(2-Phenyl-5-trifluoromethyl)phenyl-carbamoyl-6-azaandrost-4-en-3-one]
19 | 10 to 100 | < 10 | CC1=C2NC[C@H]3[C@@H]4CC[C@H](C(=O)Nc5c(C(C)C)cccc5C(C)C)[C@@]4(C)CC[C@@H]3[C@@]2(C)C=CC1=O [Compound 94, 17β-N-(2,6-Di-i-propyl)phenyl-carbamoyl-6-azaandrost-4-methyl-1,4-dien-3-one]
20 | < 10 | < 10 | CC(C)(C)c1ccc(-c2ccc(Cl)cc2)cc1NC(=O)[C@H]1CC[C@H]2[C@@H]3CNC4=CC(=O)CC[C@]4(C)[C@H]3CC[C@]12C [Compound 120, 17β-N-(2-t-Butyl-5-(4-chlorophenyl))phenyl-carbamoyl-6-azaandrost-4-en-3-one]
21 | < 10 | < 10 | CC(C)c1cccc(C(C)C)c1NC(=O)OC[C@H]1CC[C@H]2[C@@H]3CNC4=CC(=O)CC[C@]4(C)[C@H]3CC[C@]12C [Compound 99, 17β-Hydroxymethyl-(2,6-diisopropylphenylcarbamate)-6-azaandrost-4-en-3-one]
22 | 10 to 100 | < 10 | COc1cc(Cl)cc(NC(=O)[C@H]2CC[C@H]3[C@@H]4CNC5=CC(=O)CC[C@]5(C)[C@H]4CC[C@]23C)c1 [Compound 113, 17β-N-(3-Methoxy-5-chloro)phenyl-carbamoyl-6-azaandrost-4-en-3-one]
23 | 10 to 100 | < 10 | CCc1cc(Br)cc(CC)c1NC(=O)[C@H]1CC[C@H]2[C@@H]3CNC4=CC(=O)CC[C@]4(C)[C@H]3CC[C@]12C [Compound 70, 17β-N-(2,6-Diethyl-4-bromo)phenyl-carbamoyl-6-azaandrost-4-en-3-one]
24 | 10 to 100 | < 10 | COc1ccccc1Oc1ccc(C(F)(F)F)cc1NC(=O)[C@H]1CC[C@H]2[C@@H]3CNC4=CC(=O)CC[C@]4(C)[C@H]3CC[C@]12C [Compound 80]
25 | 10 to 100 | < 10 | C[C@]12CC[C@H]3[C@@H](CNC4=CC(=O)CC[C@@]43C)[C@@H]1CC[C@@H]2C(=O)NC1(c2ccc(F)cc2)CCCC1 [Compound 104, 17β-N-1-(4-Fluorophenyl)cyclopentyl-carbamoyl-6-azaandrost-4-en-3-one]
26 | < 10 | < 10 | C[C@]12CC[C@H]3[C@@H](CNC4=CC(=O)CC[C@@]43C)[C@@H]1CC[C@@H]2CNC(=O)NC12CC3CC(CC(C3)C1)C2 [Compound 98, 17β-Aminomethyl-(1-adamantylurea)-6-azaandrost-4-en-3-one]
27 | < 10 | < 10 | COc1ccc(C2(NC(=O)[C@H]3CC[C@H]4[C@@H]5CNC6=CC(=O)CC[C@]6(C)[C@H]5CC[C@]34C)CCCCC2)cc1 [Compound 111, 17β-N-1-(4-Methoxyphenyl)cyclohexyl-carbamoyl-6-azaandrost-4-en-3-one]
28 | 10 to 100 | < 10 | CC(C)(C)c1ccc(C#N)cc1NC(=O)[C@H]1CC[C@H]2[C@@H]3CNC4=CC(=O)CC[C@]4(C)[C@H]3CC[C@]12C [Compound 78, 17β-N-(2-t-Butyl-5-cyano)phenyl-carbamoyl-6-azaandrost-4-en-3-one]
29 | 10 to 100 | < 10 | COC(=O)c1sc(C(C)(C)C)cc1NC(=O)[C@H]1CC[C@H]2[C@@H]3CNC4=CC(=O)CC[C@]4(C)[C@H]3CC[C@]12C [Compound 132, 17β-N-3-(2-Carbomethoxy-5-t-butyl)thiophenyl-carbamoyl-6-azaandrost-4-en-3-one]
30 | < 10 | < 10 | CC(C)(C)c1ccc(C2(NC(=O)[C@H]3CC[C@H]4[C@@H]5CNC6=CC(=O)CC[C@]6(C)[C@H]5CC[C@]34C)CCCCCC2)cc1 [Compound 136, 17β-N-1-(4-t-Butylphenyl)cycloheptyl-carbamoyl-6-azaandrost-4-en-3-one]
